Assay results published in patent publication US20220265629A1, “TREATMENT OF SYSTOLIC DYSFUNCTION AND HEART FAILURE WITH REDUCED EJECTION FRACTION WITH THE COMPOUND (R)-4-(1-((3-(DIFLUOROMETHYL)-1-METHYL-1H-PYRAZOL-4-YL)SULFONYL)-1-FLUOROETHYL)-N-(ISOXAZOL-3-YL)PIPERIDINE-1-CARBOXAMIDE” (MyoKardia, Inc., priority 2019, published 2022).

System: healthy subjects
Assay: Single ascending oral dose study in healthy volunteers: transthoracic echocardiography (TTE) pharmacodynamics
Type: in vivo, human
Description: To assess pharmacodynamic effects, serial echocardiograms were performed. The sonographers used in the study completed Echo protocol training and submitted an example of a study for evaluation to the core laboratory for evaluation. The core TTE lab certified that the sonographer was able to perform the TTEs at a level satisfactory for obtaining the required protocol data.
These criteria were chosen to prevent subjects from having prolongation of SET that might lead to myocardial ischemia. Dose escalation stopping criteria also included observation of a Baseline-corrected, group mean relative increase of >20% in any 2 sequential TTE assessments in at least 2 measures of LV contractility: LVOT-VTI, LVFS, LVEF, or LVSV in subjects receiving Compound I. Placebo-controlled evaluation may have been considered. For this comparison, subjects who received placebo may have been pooled across cohorts.
SET as determined by TTE was assessed using summary statistics. Observations and change from Baseline were summarized by treatment at each time point and the maximum change from Baseline determined for each subject. In addition, categorical analyses were performed on the number of subjects with a change from Baseline>50 msec and the number of subjects with a change from Baseline>75 msec in 1 or any 2 sequential TTE assessments. The relationship to Compound I plasma concentration to SET was explored. An analysis of SET placebo-adjusted change from Baseline was also performed.
As the Cmax occurred at between 4 and 6 hours in most of the subjects, the TTE obtained at 6 hours postclose was considered the best timepoint to explore the relationship between concentration and pharmacological effect. TTEs obtained at 1.5 and 3 hours after dosing were before the Cmax and at 9 hours were after the peak Cmax. Based on the preclinical data, it was considered unlikely that there would be a prolonged lag between the Cmax and peak pharmacological effect. As the exposure after the administration of the 350 mg and 525 mg doses were very similar, it was decided to not only present the results from these groups separately, but also to combine the data from these groups. By combining the data from the 2 groups, the number of subjects closed was increased from 6 to 12, thus increasing the power to observe a statistically significant change from Baseline in the TTE parameters of interest.
An analysis of placebo-corrected change from Baseline at 6 hours postclose by Compound I plasma concentration bins is presented in Table 6 below.

[1] = 350 mg and 525 mg combined, 6 hours postdose
[2] = 350 mg and 525 mg combined, 12 hours postdose
[3] = 6 hours post-dose, plasma 0-1000 ng/mL
[4] = 6 hours post-dose, plasma 1001-2000 ng/mL

For `Cn1cc(S(=O)(=O)[C@@](C)(F)C2CCN(C(=O)Nc3ccon3)CC2)c(C(F)F)n1` [Compound I, (R)-4-(1-((3-(difluoromethyl)-1-methyl-1H-pyrazol-4-yl)sulfonyl)-1-fluoroethyl)-N-(isoxazol-3-yl)piperidine-1-carboxamide], the “LVEDD, highest observed change from Baseline” value (50 mg, 24 hours postdose) was 0.103 (0.217) cm, the “LVEF, maximum mean (SD) increase” value (100 mg, 12 hours postdose) was 4.83 (2.65) % and the “SET, observed mean (SD) increase” value (350 mg and 525 mg combined, 1.5 to 2 hours postdose) was 18.0 (19.5) msec. For the same molecule, the “LVEDV, mean (SD) decrease” value [1] was −9.98 (7.83) mL, the “LVESV, mean (SD) decrease” value [1] was −6.82 (5.99) mL and the “LVOT-VTI, mean (SD) increase” value [1] was 2.28 (1.43) cm. The “LVEDD, mean (SD) decrease” value [2] was −0.171 (0.177) cm, the “LVSV, mean (SD) increase” value [2] was 7.623 (7.842) mL and the “SET, largest observed mean (SD) increase” value (350 mg, 1.5 to 2 hours postdose) was 19.2 (20.5) msec. For the same molecule, the “LVOT-VTI, maximum change from Baseline” value (350 mg, 6 hours postdose) was 2.54 (1.78) cm, the “LVSV, maximum mean (SD) increase” value (350 mg, 12 hours postdose) was 10.848 (9.893) mL and the “LVEDV, largest mean (SD) decrease” value (525 mg, 6 hours postdose) was −12.5 (6.96) mL. The “LVEF, maximum mean (SD) increase” value (525 mg, 6 hours postdose) was 4.65 (1.45) %, the “LVESV, largest mean (SD) decrease” value (525 mg, 6 hours postdose) was −9.21 (3.18) mL and the “LVEDD, largest observed mean (SD) decrease” value (525 mg, 12 hours postdose) was −0.213 (0.221) cm. For the same molecule, the “LVESD, largest observed mean (SD) decrease” value (525 mg, 12 hours postdose) was −0.455 (0.357) cm, the “DBP placebo-corrected change from Baseline (LS mean difference)” value [3] was 2.277 mm Hg and the “E/A ratio placebo-corrected change from Baseline (LS mean difference)” value [3] was 0.150. For the same molecule, the “E/e′(lateral) placebo-corrected change from Baseline (LS mean difference)” value [3] was −0.235, the “HR placebo-corrected change from Baseline (LS mean difference)” value [3] was −1.070 bpm and the “IVCT placebo-corrected change from Baseline (LS mean difference)” value [3] was 0.677 ms. For the same molecule, the “IVRT placebo-corrected change from Baseline (LS mean difference)” value [3] was 1.526 ms, the “LVEDD placebo-corrected change from Baseline (LS mean difference)” value [3] was −0.014 cm and the “LVEDV placebo-corrected change from Baseline (LS mean difference)” value [3] was -2.210 mL. For the same molecule, the “LVEF placebo-corrected change from Baseline (LS mean difference)” value [3] was 0.322%, the “LVESD placebo-corrected change from Baseline (LS mean difference)” value [3] was 0.025 cm and the “LVESV placebo-corrected change from Baseline (LS mean difference)” value [3] was -1.204 mL. For the same molecule, the “LVFS placebo-corrected change from Baseline (LS mean difference)” value [3] was −0.560%, the “LVGCS placebo-corrected change from Baseline (LS mean difference)” value [3] was −1.076% and the “LVGLS placebo-corrected change from Baseline (LS mean difference)” value [3] was −0.467%. For the same molecule, the “MPI placebo-corrected change from Baseline (LS mean difference)” value [3] was −0.007, the “PEP placebo-corrected change from Baseline (LS mean difference)” value [3] was -2.190 ms and the Peak A placebo-corrected change from Baseline (LS mean difference) [3] was -3.09 cm/s. For the same molecule, the Peak E placebo-corrected change from Baseline (LS mean difference) [3] was -966000 ×10⁻⁶ cm/s, the “SBP placebo-corrected change from Baseline (LS mean difference)” value [3] was −0.623 mm Hg and the “SET placebo-corrected change from Baseline (LS mean difference)” value [3] was 10.623 ms. For the same molecule, the “Stroke Volume placebo-corrected change from Baseline (LS mean difference)” value [3] was 2.631 mL, the “DBP placebo-corrected change from Baseline (LS mean difference)” value [4] was 2.937 mm Hg and the “E/A ratio placebo-corrected change from Baseline (LS mean difference)” value [4] was 0.177. For the same molecule, the “E/e′(lateral) placebo-corrected change from Baseline (LS mean difference)” value [4] was 0.144, the “HR placebo-corrected change from Baseline (LS mean difference)” value [4] was 0.336 bpm and the “IVCT placebo-corrected change from Baseline (LS mean difference)” value [4] was 1.412 ms. For the same molecule, the “IVRT placebo-corrected change from Baseline (LS mean difference)” value [4] was 0.148 ms, the “LVEDD placebo-corrected change from Baseline (LS mean difference)” value [4] was −0.041 cm and the “LVEDV placebo-corrected change from Baseline (LS mean difference)” value [4] was -6.100 mL. The “LVEF placebo-corrected change from Baseline (LS mean difference)” value [4] was 2.176%, the “LVESD placebo-corrected change from Baseline (LS mean difference)” value [4] was −0.159 cm and the “LVESV placebo-corrected change from Baseline (LS mean difference)” value [4] was -4.101 mL. The “LVFS placebo-corrected change from Baseline (LS mean difference)” value [4] was 3.549%, the “LVGCS placebo-corrected change from Baseline (LS mean difference)” value [4] was −1.383% and the “LVGLS placebo-corrected change from Baseline (LS mean difference)” value [4] was −1.274%. The “MPI placebo-corrected change from Baseline (LS mean difference)” value [4] was −0.021, the “PEP placebo-corrected change from Baseline (LS mean difference)” value [4] was -5.487 ms and the Peak A placebo-corrected change from Baseline (LS mean difference) [4] was -2.87 cm/s.
